Literature values as cited in patent US20260232776A1, “COMBINATIONS OF DENDRITIC CELL-BASED VACCINES AND CHECKPOINT INHIBITORS” (Mayo Foundation for Medical Education and Research, priority 2023, published 2026).

Tested on: p44/p42 MAPK or SAPK/JNK

## C[S+]([O-])c1ccc(-c2nc(-c3ccncc3)c(-c3ccc(F)cc3)[nH]2)cc1 (stereo not shown) [SBA203580, adezmapimod]
  activity against other MAPKs such as p44/p42 MAPK or SAPK/JNK: little activity
